# Test results from paper PMC6872521, “An in silico—in vitro Pipeline Identifying an HLA-A^*02:01^+ KRAS G12V^+ Spliced Epitope Candidate for a Broad Tumor-Immune Response in Cancer Patients” (Frontiers in Immunology, 2019).
# Key:
# [1] = test system: TAPs (transporters associated with antigen processing); test: TAP assay: competition with a fluorescent reference peptide for TAP-dependent translocation into microsomes; format: biochemical; conditions: competition with fluorescent tracer peptide; microsomes from LCL721 cells; 10 mM ATP mixture; 20 min at 37°C; fluorescence read-out; signal without ATP subtracted; result in words (EC50 values only in Figure 6B)
# Method: The transport efficiency of target peptides (Supplementary Table 2) into the ER lumen mediated by TAPs was carried out as previously described ([29]) although some modifications were introduced. These include the use of a fluorescent peptide tracer and the use of microsomes rather than Streptolysin O permeabilized cells. Briefly, peptides were dissolved in DMSO and different concentrations were distributed in a final volume of 10 μl DMSO. At the same time, a mixture of 10 mM ATP, 100 mM Tris-HCl pH7.5 and 5 mM MgCl2 and fluorescent tracer peptide was prepared. 60 μl of this mixture was added to the 10 μl competing peptide mixture to a final volume of 70 μl. This was prewarmed to 37°C and 30 μl of pre-warmed microsomes were added. Microsomes were derived from LCL721 cells, as previously described ([29]).
# The mixture was incubated for 20 min at 37°C followed by cell lysis with lysis mixture (0.5% TX100, 5 mM MgCl2 in 100 mM Tris-HCl pH7.5) at 4°C. After at least 30 min incubation at 4°C, DNA was pelleted and the supernatant transferred to a new vial including ConA-beads. After at least 30 min incubation on ice, cells were washed four times with lysis mixture and the last time with 100 mM Tris-HCl pH7.5 before transfer to 96 wells plates (Corning) followed by fluorescence measurements in a plate reader. To detect background signals, a sample without competing peptide and ATP was included and fully performed as described above. This signal was subtracted from the detected signal.
# To quantify the efficiency of peptide transport into the ER lumen by TAP, we measured the competition between the target peptides and a fluorescent reference peptide for TAP-dependent translocation into free microsomes.
# HLA-A*02:01 complex = HLA-A*02:01 complex (Homo sapiens, UniProt P04439, D140Y/D185E/D98H/E176V/E277Q/G131W/G231S/I119V/I121R/I166T/I218V/L300P/L318F/N151K/N90K/P208A/P217A/Q86G/Q94H/R138H/R169H/T345S); test: HLA-A*02:01-peptide binding affinity measured with purified HLA-I molecules; conditions: cell-free system, values only in Figure 6C
# Method: The binding affinity between theoretical spliced and non-spliced peptides and HLA-A^*02:01 was predicted using the NetMHCPan 3.0 algorithm ([30]). […] The binding affinity between the synthetic peptides and HLA-A^*02:01 complexes was measured using purified HLA-I molecules, as described elsewhere ([10]).
# Once a peptide arrives in the ER lumen, its binding affinity to the specific HLA-I molecule determines whether it will ultimately be presented. Therefore, we measured the binding affinity of the same six peptides previously tested in the TAP assay and the HLA-A^*02:01 complex in a cell-free system utilizing purified HLA-I molecules.
# [2] = test system: Transduced human CD8+ T cells; conditions: TCRs isolated from humanized ABabDII mice, transduced into human PBMCs; cited from earlier work
# From the text: Our pipeline identifies epitope candidates which shall further be validated by isolating specific CTL clones and their TCRs and using them to confirm that the epitope candidates are produced in cellulo and eventually in vivo. There are several strategies to this end. For example, the KRAS5−6/8−14 spliced epitope candidate here identified has been validated in collaboration with Blankenstein et al. ([56]). Specific TCRs have been isolated from humanized ABabDII mice ([57]), cloned into expressing vectors and transduced into human PBMCs.
# [3] = test system: PBMCs of pancreatic adenocarcinoma patients; conditions: cited from earlier work
Molecule,Transport efficiency into the ER lumen mediated by TAPs [1],Binding to HLA-A*02:01 complex (result in words) (HLA-A*02:01 complex),Recognition of the epitope by TCR-transduced human CD8+ T cells [2],Recognition by PBMCs of pancreatic adenocarcinoma patients [3]
KLVVVAVGV [peptide #2],not competing with the reference peptide,–,–,–
YLVVVGAVGV [peptide #1],transported by TAP as efficiently as the non-spliced epitope candidate,–,–,–
[KL][VVGAVGV] [KRAS5−6/8−14 G12V],efficiently transported by TAPs,efficiently bind,selectively recognized,–
CC(C)C[C@H](NC(=O)[C@@H](N)CCCCN)C(=O)N[C@H](C(=O)N[C@H](C(=O)N[C@H](C(=O)NCC(=O)N[C@@H](C)C(=O)N[C@H](C(=O)NCC(=O)N[C@H](C(=O)O)C(C)C)C(C)C)C(C)C)C(C)C)C(C)C [KRAS5−14 G12V],–,–,–,recognized by PBMCs
